The results in this text go back to patent US7528149B2 (Janssen Pharmaceutica N.V., priority 1999, dated 2009).

Common to all, as to type: cell-based
Data set [1] can be described thus: Cytotoxicity in mock-infected HeLa cells (tetrazolium-based colorimetric assay). The settings on record: human. From the text: (§1) The percent protection against cytopathology caused by viruses (antiviral activity or IC50) achieved by tested compounds and their cytotoxicity (CC50) were both calculated from dose-response curves. The selectivity of the antiviral effect is represented by the selectivity index (SI), calculated by dividing the CC50 (cytotoxic dose for 50% of the cells) by the IC50 (antiviral activity for 50% of the cells).
(§2) Automated tetrazolium-based colorimetric assays were used for determination of IC50 and CC50 of test compounds. Flat-bottom, 96-well plastic microtiter trays were filled with 180 μl of Eagle's Basal Medium, supplemented with 5% FCS (0% for FLU) and mM Hepes buffer. Subsequently, stock solutions (7.8× final test concentration) of compounds were added in 45 μl volumes to a series of triplicate wells so as to allow simultaneous evaluation of their effects on virus- and mock-infected cells. Five five-fold dilutions were made directly in the microtiter trays using a robot system. Untreated virus controls, and HeLa cell controls were included in each test. Approximately 100 TCID50 of Respiratory Syncytial Virus was added to two of the three rows in a volume of 50 μl. The same volume of medium was added to the third row to measure the cytotoxicity of the compounds at the same concentrations as those used to measure the antiviral activity. After two hours of incubation, a suspension (4×10^5 cells/ml) of HeLa cells was added to all wells in a volume of 50 μl. The cultures were incubated at 37° C. in a 5% CO2 atmosphere. Seven days after infection the cytotoxicity and the antiviral activity was examined spectrophotometrically. To each well of the microtiter tray, 25 μl of a solution of MTT (3-(4,5-dimethylthiazol-2-yl)-2,5-diphenyltetrazolium bromide) was added. The trays were further incubated at 37° C. for 2 hours, after which the medium was removed from each cup. Solubilization of the formazan crystals was achieved by adding 100 μl 2-propanol. Complete dissolution of the formazan crystals were obtained after the trays have been placed on a plate shaker for 10 min. Finally, the absorbances were read in an eight-channel computer-controlled photometer (Multiskan MCC, Flow Laboratories) at two wavelengths (540 and 690 nm). The absorbance measured at 690 nm was automatically subtracted from the absorbance at 540 nm, so as to eliminate the effects of non-specific absorption.

Data set [2] concerns Respiratory Syncytial Virus. Put plainly: In vitro screening for activity against Respiratory Syncytial Virus (tetrazolium-based colorimetric assay, protection against cytopathology in HeLa cells). The settings on record: for SI (selectivity index, CC50 divided by IC50): CC50 (HeLa) / IC50 (RSV); for IC50: read-out: IC50 (antiviral activity).
Source text: as §1, §2

The next data set has as its system HeLa cells. Put plainly: Cytotoxicity in mock-infected HeLa cells (tetrazolium-based colorimetric assay). As to conditions: human, 7 days.
Source text: as §1, §2

Where [3] appears, read: mock-infected HeLa cells, MTT, seven days, read-out: CC50 (cytotoxic dose for 50% of the cells).
Setting [4] is: human respiratory syncytial virus, HeLa, 168 h.
[5] abbreviates: CC50 (cytotoxic dose for 50% of the cells).

Usually CC50 stands for the concentration that lowers cell viability or growth by half. One may read the IC50 as the midpoint of a concentration-inhibition curve.

Read-outs that look alike come from different tables or passages of the source.

On to `Cc1cccc(C(OCCO)n2c(NC3CCN(CCN)CC3)nc3ccccc32)n1` (racemic) [Compound 13, monohydrate], for which the CC50 at 7 days in data set [1] (setting [3]) is above 100000 nM. Besides, the “SI (selectivity index, CC50 divided by IC50)” value in data set [2] was above 7943. For the same molecule, the IC50 in data set [2] (setting [4]) came out at 12.6 nM.
The matching figures for `CCOC(c1nc(C)ccc1OCc1ccccc1)n1c(NC2CCN(CCN)CC2)nc2ccccc21.Cl.Cl.Cl.O.O` (racemic) [Compound 11, (±)-N-[1-(2-aminoethyl)-4-piperidinyl]-1-[ethoxy[6-methyl-3-(phenylmethoxy)-2-pyridinyl]-methyl]-1H-benzimidazol-2-amine trihydrochloride dihydrate]: 9950 nM, 79 and 126 nM.
The molecule `CCOC(c1cccc(Br)n1)n1c(NC2CCN(CC(N)C(C)C)CC2)nc2ccccc21` (racemic) [Compound 10, (±)-N-[1-(2-amino-3-methylbutyl)-4-piperidinyl]-1-[(6-bromo-2-pyridinyl)-ethoxymethyl]-1H-benzimidazol-2-amine] yielded a CC50 at 7 days in data set [1] (setting [5]) of 37900 nM. Further, the “SI (selectivity index, CC50 divided by IC50)” value in data set [2] turned out to be 63096. Also, the IC50 in data set [2] (human respiratory syncytial virus, HeLa, 168 h, RSV approx. 100 TCID50, HeLa cells, MTT read seven days after infection) is 0.6 nM.
As for `CCOC(c1cccc(Br)n1)n1c(NC2CCN(CC(N)C(C)C)CC2)nc2c(C)cccc21` (racemic) [Compound 87, monohydrate], the 50% cytotoxic concentration (CC50) at 7 days in data set [1] (setting [3]) was 10100 nM. In data set [2], the “SI (selectivity index, CC50 divided by IC50)” value worked out at 31623. The half-maximal inhibitory concentration (IC50) in data set [2] (setting [4]) was found to be 0.32 nM.
With `CCOC(c1cccc(C)n1)n1c(NC2CCN(CC(N)C(C)C)CC2)nc2ccccc21` (stereo not drawn) [Compound 58], the CC50 in the data set on HeLa cells stood at 79400 nM. In addition, the “SI (selectivity index, CC50 divided by IC50)” value in data set [2] is on record as 1585. Besides, the IC50 in data set [2] (RSV approx. 100 TCID50, HeLa cells, MTT read seven days after infection) amounted to 50.1 nM.
Turning to `CCOC(c1cccc(C)n1)n1c(NC2CCN(CC(N)C(C)C)CC2)nc2ccccc21` [Compound 67, [(A)(S)]-N-[1-(2-amino-3-methylbutyl)-4-piperidinyl]-1-[ethoxy(6-methyl-2-pyridinyl)methyl]-1H-benzimidazol-2-amine monohydrate], in data set [1] (setting [5]), half-maximal cytotoxicity (CC50 at 7 days) was put at 63400 nM. For the same molecule, in data set [2] (monohydrate), the “SI (selectivity index, CC50 divided by IC50)” value is recorded as 15849. Also, the IC50 in data set [2] (RSV approx. 100 TCID50, HeLa cells, MTT read seven days after infection, monohydrate) came out at 4 nM.
As for `COCCOC(c1cccc(C)n1)n1c(NC2CCN(CC(N)C(C)C)CC2)nc2c(C)cc(Cl)cc21.Cl.Cl.Cl.O.O.O` (stereo not drawn) [Compound 88, N-[1-(2-amino-3-methylbutyl)-4-piperidinyl]-6-chloro-1-[(2-methoxyethoxy)(6-methyl-2-pyridinyl)methyl]-4-methyl-1H-benzimidazol-2-amine trihydrochloride trihydrate], the CC50 at 7 days in data set [1] (setting [3]) is 20000 nM. For the same molecule, the “SI (selectivity index, CC50 divided by IC50)” value in data set [2] is reported as 10000. Besides, in data set [2] (setting [4]), the IC50 worked out at 2 nM.
